Measurements from patent publication US10293023B2, “Method of altering vascular permeability and uses thereof” (CHILDREN'S MEDICAL CENTER CORPORATION, priority 2013, dated 2019).

Key:
[1] = system: mouse lungs; assay: Inflammatory cell count in BAL fluid (Wright-Giemsa stain); format: in vivo, mice; conditions: total inflammatory cell count
Experimental: BAL was performed by instilling 0.9% NaCl in two separate 0.5 ml aliquots. The fluid was recovered by gentle suction and placed on ice for immediate processing. An aliquot of the BAL fluid was processed immediately for differential cell counts performed on cytospin preparations stained with modified Wright-Giemsa stain (Diff-Quik; American Scientific Products, McGaw Park, Ill.).

[2] = system: lung cell; assay: Lung cell proliferation or apoptosis in vivo; design: species or system mice; conditions: data not shown
[3] = system: mouse lungs; assay: Endotoxin (LPS)-induced lung vascular permeability, Evan's Blue dye leakage; conditions: for increase of vascular permeability induced by LPS: treatment in combination with LPS for the last two days
Experimental: (§1) Mice (6-10 weeks old, CD1 strain, female) were treated with LPS (100 mg, intraperitoneally) and lung permeability was assessed 2 days after injection ^3. […] The lung permeability was measured using Evan's Blue dye or low MW fluorescently labeled dextran (MW 4000, sigma) leakage ^3. Evans blue dye was extracted from the lung by incubation with formamide (70° C. for 24 h) and the concentration of Evans blue was estimated by dual-wavelength spectrophotometer (620 nm and 740 nm). Mice were treated with BAPN (3 mg/kg, drinking water) for 14 days ^13. […] The inventors treated the mice with LPS for the last two days. For decellularization of lung, the inventors perfused the lung with decellularization buffer (0.5% SDS/PBS) for 1 h and cryosectioned it and analyzed by H&E staining and immunohistochemistry 25,26. […] For analysis of collagen structure, the inventors used picrosirius red staining ^30 and observed the structure using birefringence microscope (Abrio imaging system, CRI, MA)^30.

[4] = system: pulmonary endothelial cells; assay: Endothelial cell-cell junctional integrity in lung by TEM; format: in vivo, mice
Experimental: For transmission electron microscopy (TEM), small pieces (1-2 mm cubes) of lung tissue were fixed with 2.5% Glutaraldehyde and 2% Paraformaldehyde in 0.1 M sodium cacodylate buffer (pH 7.4) for at least 2 h at RT, washed in 0.1M cacodylate buffer and postfixed with 1% Osmiumtetroxide (OsO4)/1.5% Potassiumferrocyanide (KFeCN6) for 1 h, washed in water and incubated in 1% aqueous uranyl acetate for 1 h followed by washes in water and subsequent dehydration in grades of alcohol. The samples were then put in propyleneoxide for 1 hr and infiltrated ON in a 1:1 mixture of propyleneoxide and TAAB Epon (Marivac Canada Inc. St. Laurent, Canada). The samples were then embedded in TAAB Epon and polymerized at 60 C for 48 hrs. Ultrathin sections (about 60 nm) were cut on a Reichert Ultracut-S microtome, picked up on to copper grids stained with lead citrate and examined in a JEOL 1400 TEM microscope or a TecnaiG^2 Spirit BioTWIN.

[5] = system: mouse lungs; assay: In vivo pulmonary permeability assay (Evan's Blue dye leakage); design: species or system mice
Experimental: as §1

[6] = system: LOX; assay: LOX activity measured in blood samples (LOX activity assay kit); format: in vivo; conditions: treated mice vs control; BAPN 2 weeks, LOX siRNA 1 week
Experimental: LOX activity in the serum and lung homogenate was measured using LOX activity assay kit (ABD Bioquest, CA) in which LOX substrate that releases hydrogen peroxide was detected ^13,37,55. Hydroxyproline in lung tissue or serum was measured using Hydroxyproline assay kit (Biovision, Milpitas, Calif.)^27. The levels of IL-1 and TNF-α in the lung homogenate were measured by ELISA (R&D systems).

[7] = system: mouse lungs; assay: ECM and collagen structure of decellularized lung (H&E, immunofluorescence, picrosirius red birefringence); conditions: for collagen fiber alignment with alveolar septae: picrosirius red staining, birefringence microscopy
Experimental: as §1

[8] = system: mouse lung tissues; assay: Lung stiffness (Young's modulus) by tensile loading assay; conditions: compared with controls (control IgG, control siRNA)
Experimental: Mice (6-10 weeks old, CD1 strain, female) were treated with LPS (100 mg, intraperitoneally) and lung permeability was assessed 2 days after injection ^3. […] Gene knockdown or overexpression in the lung (2 days later) was confirmed by measuring mRNA and/or protein levels using qRT-PCR and IB, respectively. […] Mice were treated with BAPN (3 mg/kg, drinking water) for 14 days ^13. The inventors also treated mice with LOX function-blocking polyclonal antibody (3 mg/kg)^13,36, LOX DNA or LOX siRNA (10 mg/mouse) injected intravenously (retro orbital injection) twice per week. The inventors treated the mice with LPS for the last two days.
The inventors trimmed and made cylindrical lung tissue sections using a sharp knife that included peripheral and central portions of the left lobe. The stiffness of mouse lung tissues was evaluated by determining Young's Modulus (E) under tensile loading ^31,32 (Mach-1; Biomomentum, Canada). Tissues were attached to the base and probe using polyacrylamide glue and stretched until complete breakage of the tissue. The Young's Modulus was derived from the slope of a standard stress-strain curve using data within the first 10% of the maximum strain.

[9] = system: LOX; assay: LOX mRNA and protein expression in vivo (qRT-PCR, immunoblot); design: species or system mice
Experimental: Quantitative reverse transcription (qRT)-PCR was performed with the Quantitect SYBR Green RT-PCR kit (QIAGEN) using ABI 7300 real time PCR system (Applied Biosystems, Foster City, Calif.). Cyclophilin controlled for overall cDNA content. The primers used for mouse cyclophilin were forward; 5′-[…]-3′ (SEQ ID NO:4), reverse; 5′-[…]-3′(SEQ ID NO:5)^15. The primers for mouse LOX were forward; 5′-[…]-3′(SEQ ID NO:6), reverse; 5′-[…]-3′(SEQ ID NO:7).

Compound	increase of inflammatory cells in the bronchoalveolar lavage (BAL) fluid [1]	lung cell proliferation or apoptosis in vivo [2]	LPS-induced pulmonary edema in mice ([3]; mouse, in vivo)	increase of vascular permeability induced by LPS [3]	junctions between pulmonary endothelial cells [4]	lung vascular permeability: Evan's Blue dye leakage higher than in control non-treated lungs ([5]; BAPN treatment of healthy mice)	decrease in LOX activity measured in blood samples [6] [%]	disruption of collagen VI-positive ECM fibers by LPS ([7]; decellularized lungs, LPS in combination with BAPN)	fine collagen fibril / ECM structure in decellularized lung ([7]; immunofluorescence microscopy)	collagen fiber alignment with alveolar septae [7]	decrease of lung stiffness (Young's modulus) [8] [%]	LOX expression in the lung ([9]; mRNA and/or protein)	LOX expression in other organs, such as the kidney ([9]; not shown)	increase of lung vascular permeability ([5]; Evan's Blue dye leakage, compared to control-treated or untreated mice) [fold]	suppression of vascular permeability induced by LPS treatment ([3]; Evans blue dye leakage, 8 mg/mouse/day, IP, two days) [%]
N#CCCN [BAPN, beta-aminopropionitrile]	approximately 2 fold	did not produce detectable changes	inhibits	prevented	disrupted	more than 60%	25	prevented this disruption	lost the fine network	more randomly distributed	40				
LOX siRNA: siRNA for mouse LOX, 5′-CAACGGGCAGGUGUUCAG-3′ (SEQ ID NO:2) and 5′-CUGAACACCUGCCCGUUG-3′ (SEQ ID NO:3) (listed as RNA, chemistry not given here)				restored			60			disrupted normal collagen fiber alignment	30	specifically decreased	not in the kidney	2.5	
CC(C)(S)[C@@H](N)C(=O)O [D-penicillamine]															40
